Assay results from ChEMBL document CHEMBL1143572, “Virtual screening workflow development guided by the "receiver operating characteristic" curve approach. Application to high-throughput docking on metabotropic glutamate receptor subtype 4” (J Med Chem, 2005).

What follows are molecules tested against T1, Metabotropic glutamate receptor 4 (Rattus norvegicus, UniProt P31423) (assay: Stimulation of [3H]phosphatidylinositol accumulation by rat Metabotropic glutamate receptor 4 co-expressed with Gqi9 protein in HEK 293 cells; Active).
T1 sequence (P31423 whole entry): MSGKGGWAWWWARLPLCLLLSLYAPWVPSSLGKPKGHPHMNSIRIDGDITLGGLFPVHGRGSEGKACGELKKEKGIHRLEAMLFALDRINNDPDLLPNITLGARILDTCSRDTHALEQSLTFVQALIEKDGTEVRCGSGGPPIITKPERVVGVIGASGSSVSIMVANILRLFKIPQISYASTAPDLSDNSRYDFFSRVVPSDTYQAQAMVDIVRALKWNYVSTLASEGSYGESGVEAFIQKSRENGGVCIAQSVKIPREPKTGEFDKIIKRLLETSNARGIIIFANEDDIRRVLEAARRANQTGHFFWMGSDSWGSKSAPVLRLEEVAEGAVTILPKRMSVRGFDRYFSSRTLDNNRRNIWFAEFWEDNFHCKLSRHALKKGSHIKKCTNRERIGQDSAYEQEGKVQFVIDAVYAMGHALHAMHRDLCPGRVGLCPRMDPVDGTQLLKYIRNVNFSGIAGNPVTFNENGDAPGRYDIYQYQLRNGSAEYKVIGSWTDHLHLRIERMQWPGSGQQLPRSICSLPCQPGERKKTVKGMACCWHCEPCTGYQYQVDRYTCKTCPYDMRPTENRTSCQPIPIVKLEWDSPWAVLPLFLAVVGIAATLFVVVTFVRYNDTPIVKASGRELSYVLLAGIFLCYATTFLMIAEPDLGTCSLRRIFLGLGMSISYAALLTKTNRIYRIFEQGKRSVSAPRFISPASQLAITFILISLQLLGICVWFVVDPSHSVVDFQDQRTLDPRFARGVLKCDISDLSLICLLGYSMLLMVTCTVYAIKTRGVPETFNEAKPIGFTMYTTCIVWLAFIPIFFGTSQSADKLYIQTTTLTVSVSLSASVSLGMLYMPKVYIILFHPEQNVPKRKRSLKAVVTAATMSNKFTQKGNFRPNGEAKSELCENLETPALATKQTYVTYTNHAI
Assay type: functional, cell-based, HEK293

| EC50 | Structure (SMILES) |
| --- | --- |
| < 100 µM | N[C@@]1(C(=O)O)C[C@H](C(=O)O)[C@H](C(=O)O)C1 |
| < 100 µM | NC1(C(=O)O)C[C@H](C(=O)O)[C@@H](C(=O)O)C1 |
| < 100 µM | NC1(C(=O)O)CC2CC1C2C(=O)O (centres undefined) |
| < 100 µM | N[C@H](C(=O)O)[C@@H]1C[C@H]1C(=O)O |
| < 100 µM | N[C@H](CCC(=O)O)C(=O)O [D-GLUTAMATE] |

Further lines, the molecule ahead of its results:

| Structure (SMILES) | EC50 |
| --- | --- |
| N[C@H](C(=O)O)c1ccc(P(=O)(O)O)cc1 | < 100 µM |
| N[C@H](C(=O)O)c1ccc(C(=O)O)c(C(=O)O)c1 | < 100 µM |
| N[C@@H](CCS(=O)(=O)O)C(=O)O | < 100 µM |
| N[C@@H](CCP(=O)(O)O)C(=O)O | < 100 µM |
| N[C@@H](COP(=O)(O)O)C(=O)O [DEXFOSFOSERINE] | < 100 µM |

The molecules below were run against T1, Metabotropic glutamate receptor 4 (assay: Effective concentration against Metabotropic glutamate receptor 4).

| Structure (SMILES) | EC50 |
| --- | --- |
| N[C@@H](CCP(=O)(O)O)C(=O)O | 200 nM |

These molecules were tested against T1, Metabotropic glutamate receptor 4 (assay: Stimulation od [3H]phosphatidylinositol accumulation by rat Metabotropic glutamate receptor 4 co-expressed with Gqi9 protein in HEK 293 cells).
Assay type: functional, cell-based, HEK293

| Structure (SMILES) | EC50 |
| --- | --- |
| N[C@H](C(=O)O)C12CC(C(=O)O)(C1)C2 | > 1 mM |

What follows are molecules tested against Metabotropic glutamate receptor 4 (Rattus norvegicus, UniProt P31423, D309A) (assay: Effective concentration against D309A mutant Metabotropic glutamate receptor 4).
Sequence of Metabotropic glutamate receptor 4 (Rattus norvegicus, UniProt P31423, D309A) (P31423 whole entry, looked up, stated change not applied): as the sequence (P31423 whole entry) above

| Structure (SMILES) | EC50 |
| --- | --- |
| N[C@@H](CCP(=O)(O)O)C(=O)O | 129 µM |

What follows are molecules tested against T1, Metabotropic glutamate receptor 4 (assay: Stimulation of [3H]phosphatidylinositol accumulation by rat Metabotropic glutamate receptor 4 co-expressed with Gqi9 protein in HEK 293 cells; Inactive).
Assay type: functional, cell-based, HEK293

| EC50 | Structure (SMILES) |
| --- | --- |
| > 100 µM | C=C(C[C@@H](N)C(=O)O)C(=O)O |
| > 100 µM | N[C@@]1(C(=O)O)CN[C@@H](C(=O)O)C1 |
| > 100 µM | N[C@H](C(=O)O)C12CC(C(=O)O)(C1)C2 |
| > 100 µM | C[C@@H](C[C@@H](N)C(=O)O)C(=O)O |
| > 100 µM | N[C@@]1(C(=O)O)CC[C@H]2[C@H](C(=O)O)[C@H]21 [EGLUMETAD] |

Continued, molecule first:

| Structure (SMILES) | EC50 |
| --- | --- |
| N[C@@H](CCn1oc(=O)[nH]c1=O)C(=O)O | > 100 µM |
| N[C@H](Cn1oc(=O)[nH]c1=O)C(=O)O | > 100 µM |
| N[C@@]1(C(=O)O)CC[C@H](C(=O)O)C1 | > 100 µM |
| N[C@@]1(C(=O)O)CC[C@@H](C(=O)O)C1 | > 100 µM |
| N[C@H](C(=O)O)c1cc(O)cc(O)c1 | > 100 µM |
| N[C@H](C(=O)O)c1ccc(C(=O)O)c(O)c1 | > 100 µM |
